Measured values published in ChEMBL document CHEMBL5131568, “Discovery of an Oral, Rule of 5 Compliant, Interleukin 17A Protein-Protein Interaction Modulator for the Potential Treatment of Psoriasis and Other Inflammatory Diseases” (J Med Chem, 2022).
Values after ≈ are worked out from the molar mass of the structure shown.

How the values were obtained:
[1] = Inhibition of IL-8 release in non-glycosylated IL-17A/TNFalpha-stimulated human HEKa incubated for 72 hrs under serum free medium by AlphaLISA; type: functional, cell-based
[2] = Metabolic stability in human liver microsomes assessed as apparent clearance at 0.5 uM measured upto 40 mins in presence of NADPH by LCMS/MS analysis; type: ADME, Microsome; details: read-out: CLH
[3] = Inhibition of IL-8 release in glycosylated IL-17A/TNFalpha-stimulated human HEKa cells at 10 uM incubated for 72 hrs under serum free medium by AlphaLISA; type: functional
[4] = Inhibition of IL-8 release in glycosylated IL-17A/TNFalpha-stimulated human HEKa incubated for 72 hrs under serum free medium by AlphaLISA; type: functional, cell-based
[5] = Solubility in phosphate buffer at pH 7.4 measured after 24 hrs by HPLC-UV analysis; type: physicochemical
[6] = Solubility in phosphate buffer at pH 6.5 measured after 24 hrs by HPLC-UV analysis; type: physicochemical
[7] = Solubility in phosphate buffer at pH 2 measured after 24 hrs by HPLC-UV analysis; type: physicochemical
[8] = Protein binding in human plasma assessed as unbound fraction at 1 uM by LCMS/MS analysis; type: ADME, cell-free
[9] = Apparent permeability of compound in human Caco2 cells from apical to basal; type: ADME, cell-based; details: Caco-2
[10] = Apparent permeability of compound in human Caco2 cells from basal to apical; type: ADME, cell-based; details: Caco-2
[11] = Clearance in Sprague-Dawley rat at 0.1 mg/kg, iv measured upto 24 hrs by LCMS/MS analysis; type: ADME, organism-based; details: in vivo
[12] = Half life in Sprague-Dawley rat at 0.1 mg/kg, iv measured upto 24 hrs by LCMS/MS analysis; type: ADME, organism-based; details: in vivo
[13] = Volume of distribution at steady state in Sprague-Dawley rat at 0.1 mg/kg, iv measured upto 24 hrs by LCMS/MS analysis; type: ADME, organism-based; details: in vivo, read-out: Vdss
[14] = Oral bioavailability in Sprague-Dawley rat at 2.6 mg/kg measured upto 24 hrs by LCMS/MS analysis; type: ADME, organism-based; details: in vivo
[15] = Inhibition of IL-8 release in non-glycosylated IL-17A/TNFalpha-stimulated human HEKa cells at 0.6 uM incubated for 72 hrs under serum free medium by AlphaLISA; type: functional
[16] = biological target: Voltage-gated inwardly rectifying potassium channel KCNH2 (Homo sapiens, UniProt Q12809); experiment: Inhibition of human ERG; type: toxicity
[17] = biological target: T1, Interleukin-17A (Homo sapiens, UniProt Q16552); experiment: Binding affinity to human IL-17A assessed as thermal stability by measuring increase in unfolding temperature by differential scanning fluorimetry
T1 sequence (Q16552 whole entry): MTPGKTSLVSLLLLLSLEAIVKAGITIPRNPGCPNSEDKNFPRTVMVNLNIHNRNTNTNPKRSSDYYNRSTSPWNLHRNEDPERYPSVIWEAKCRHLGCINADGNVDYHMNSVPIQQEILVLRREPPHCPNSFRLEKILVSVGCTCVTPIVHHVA

[18] = Inhibition of IL-8 release in non-glycosylated IL-17A/TNFalpha-stimulated human HEKa cells at 6 uM incubated for 72 hrs under serum free medium by AlphaLISA; type: functional

Sequence of Voltage-gated inwardly rectifying potassium channel KCNH2 (Q12809 whole entry): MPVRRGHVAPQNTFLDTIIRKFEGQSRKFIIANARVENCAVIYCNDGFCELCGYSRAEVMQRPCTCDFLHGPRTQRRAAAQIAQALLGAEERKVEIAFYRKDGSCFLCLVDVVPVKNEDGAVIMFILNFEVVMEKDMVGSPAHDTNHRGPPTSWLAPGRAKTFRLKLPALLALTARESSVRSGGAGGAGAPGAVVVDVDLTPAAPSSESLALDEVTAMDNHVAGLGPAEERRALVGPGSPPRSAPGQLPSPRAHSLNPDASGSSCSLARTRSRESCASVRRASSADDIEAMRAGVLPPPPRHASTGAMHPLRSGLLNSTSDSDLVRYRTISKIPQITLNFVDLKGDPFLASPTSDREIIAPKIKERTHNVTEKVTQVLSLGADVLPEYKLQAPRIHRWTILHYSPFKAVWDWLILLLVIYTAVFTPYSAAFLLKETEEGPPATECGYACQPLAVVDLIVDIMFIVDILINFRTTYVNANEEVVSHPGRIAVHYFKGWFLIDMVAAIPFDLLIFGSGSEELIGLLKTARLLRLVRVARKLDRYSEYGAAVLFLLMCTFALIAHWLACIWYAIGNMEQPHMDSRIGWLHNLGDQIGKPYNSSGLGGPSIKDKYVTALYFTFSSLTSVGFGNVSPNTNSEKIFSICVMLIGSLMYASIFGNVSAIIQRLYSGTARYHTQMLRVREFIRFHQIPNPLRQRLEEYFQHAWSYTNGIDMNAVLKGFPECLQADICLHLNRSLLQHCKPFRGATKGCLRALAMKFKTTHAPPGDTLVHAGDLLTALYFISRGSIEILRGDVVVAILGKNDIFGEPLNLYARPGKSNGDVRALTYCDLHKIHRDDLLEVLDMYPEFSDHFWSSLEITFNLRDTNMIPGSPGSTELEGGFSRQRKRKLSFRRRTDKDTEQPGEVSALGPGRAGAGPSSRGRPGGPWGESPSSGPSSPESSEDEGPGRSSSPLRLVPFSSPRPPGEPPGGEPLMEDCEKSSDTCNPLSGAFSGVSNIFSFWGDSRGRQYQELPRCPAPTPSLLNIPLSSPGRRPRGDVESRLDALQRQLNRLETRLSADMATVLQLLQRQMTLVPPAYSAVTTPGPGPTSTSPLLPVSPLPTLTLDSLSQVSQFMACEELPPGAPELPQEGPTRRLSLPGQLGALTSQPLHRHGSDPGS

Row | EC50 [1] [nM] | CLint scaled at 0.5 µM [2] [mL/min/kg] | SMILES | further results
1 | 1100 | 24 | Cc1n[nH]c(C)c1-c1ccc(NC(=O)[C@H](Cc2ccccc2Cl)NC(=O)c2ccnn2C)cc1 | –
2 | – | < 8 | Cn1cnnc1-c1ccc(NC(=O)[C@@H](NC(=O)c2ccnn2C)C(c2ccccc2)c2ccccc2)cc1 | inhibition at 10 µM [3]: 47%
3 | – | 94 | Cc1ncn(C)c1-c1ccc(NC(=O)[C@@H](NC(=O)c2ccnn2C)C(c2ccccc2)c2ccccc2)cc1 | EC50 [4]: 304 nM
4 | 5610 | < 8 | CN(C)C(=O)c1ccc(NC(=O)[C@@H](NC(=O)c2ccnn2C)C(c2ccccc2)c2ccccc2)cc1 | inhibition at 10 µM [3]: 52%
5 | – | < 8 | Cc1n[nH]c(C)c1-c1ccc(NC(=O)[C@@H](NC(=O)c2ccnn2C)C(c2ccccc2)c2ccccc2)cc1 | solubility at 24 h [5]: < 1 µg/mL; solubility at 24 h [6]: < 1 µg/mL; solubility at 24 h [7]: 25 µg/mL (≈ 48.2 µM); EC50 [4]: 117 nM; fraction unbound at 1 µM [8]: 0.0011; Papp A→B [9]: 16 ×10⁻⁶ cm/s; Papp B→A [10]: 21 ×10⁻⁶ cm/s; clearance [11]: 7 mL/min/kg; half-life [12]: 3.2 h; Vd [13]: 2 L/kg; bioavailability [14]: 26%
6 | – | < 8 | Cn1nccc1C(=O)N[C@H](C(=O)Nc1ccc(-c2cn[nH]c2)cc1)C(c1ccccc1)c1ccccc1 | EC50 [4]: 3380 nM
7 | – | < 8 | Cc1n[nH]c(C)c1-c1ccc(NC(=O)[C@@H](NC(=O)c2ccnn2C)c2ccccc2)cc1 | inhibition at 0.6 µM [15]: 28%
8 | – | < 8 | Cc1[nH]ncc1-c1ccc(NC(=O)[C@@H](NC(=O)c2ccnn2C)C(c2ccccc2)c2ccccc2)cc1 | EC50 [4]: 385 nM
9 | – | 21 | Cn1cncc1-c1ccc(NC(=O)[C@@H](NC(=O)c2ccnn2C)C(c2ccccc2)c2ccccc2)cc1 | EC50 [4]: 947 nM
10 | – | 12 | Cc1n[nH]c(C)c1-c1ccc(NC(=O)[C@H](Cc2ccccc2)NC(=O)c2ccnn2C)cc1 | inhibition at 6 µM [18]: 37%

The next lines start with the compound.

Row | SMILES | EC50 [1] [nM] | CLint scaled at 0.5 µM [2] [mL/min/kg] | further results
11 | CCn1nccc1C(=O)N[C@H](C(=O)Nc1ccc(-c2c(C)n[nH]c2C)cc1)C(C1CCC1)C1CCC1 | 5.5 | 44 | –
12 | Cc1n[nH]c(C)c1-c1ccc(NC(=O)[C@@H](NC(=O)c2ccnn2C(C)C)C(C2CCC2)C2CCC2)cc1 | 4.5 | 52 | –
13 | Cc1n[nH]c(C)c1-c1ccc(NC(=O)[C@@H](NC(=O)c2ccnn2C)C2CCCCCC2)cc1 | 36 | 105 | –
14 | Cc1n[nH]c(C)c1-c1ccc(NC(=O)[C@@H](NC(=O)c2ccnn2C)C(C2CCC2)C2CCC2)cc1 | 10 | 9 | –
15 | O=C1CNC(=O)[C@@H](Cc2ccc(NC(=O)[C@H](Cc3ccccc3Cl)NC(=O)Cc3ccccc3)cc2)NC(=O)CC2(CCCC2)CC(=O)NCCCCCN1 | 151 | > 200 | EC50 [4]: 1920 nM
16 | Cc1n[nH]c(C)c1-c1ccc(NC(=O)[C@@H](NC(=O)c2ccnn2C)C2CCCCC2)cc1 | 208 | < 8 | –
17 | Cc1n[nH]c(C)c1-c1ccc(NC(=O)[C@H](CC2CCCCC2)NC(=O)c2ccnn2C)cc1 | 935 | 57 | –
18 | CC(C)[C@H](NC(=O)COCCNC(=O)OC(C)(C)C)C(=O)N[C@@H](CC(=O)O)Cc1ccc(NC(=O)[C@H](Cc2ccccc2Cl)NC(=O)C(F)(F)c2ccccc2)cc1 | 575 | 33 | –
19 | Cc1n[nH]c(C)c1-c1ccc(NC(=O)[C@@H](NC(=O)c2ccnn2C(C)C)C(C2CC2)C2CC2)cc1 | 15 | < 8 | solubility at 24 h [5]: < 1 µg/mL; solubility at 24 h [6]: < 1 µg/mL; solubility at 24 h [7]: 40 µg/mL (≈ 84.3 µM); fraction unbound at 1 µM [8]: 0.017; Papp A→B [9]: 38 ×10⁻⁶ cm/s; Papp B→A [10]: 26 ×10⁻⁶ cm/s; clearance [11]: 7.4 mL/min/kg; half-life [12]: 3.7 h; Vd [13]: 2.6 L/kg; bioavailability [14]: 100%; IC50 [16]: > 30000 nM; Kd [17]: 32 nM
20 | Cc1n[nH]c(C)c1-c1ccc(NC(=O)[C@@H](NC(=O)c2ccnn2C)C(C2CC2)C2CC2)cc1 | 53 | < 8 | –
21 | Cc1n[nH]c(C)c1-c1ccc(NC(=O)[C@@H](NC(=O)c2ccnn2C)[C@H]2CC[C@H](C)CC2)cc1 | 50 | < 8 | –
22 | CCn1nccc1C(=O)N[C@H](C(=O)Nc1ccc(-c2c(C)n[nH]c2C)cc1)C(C1CC1)C1CC1 | 26 | < 8 | –
23 | Cc1n[nH]c(C)c1-c1ccc(NC(=O)C(NC(=O)c2ccnn2C)C2CCC3(CC2)CC3)cc1 (stereo not given) | 296 | < 8 | –
